Source: PMC13223490, “New Indazole Derivatives as Potential Scaffolds for the Development of Anticancer, Antiviral, and Anti-tuberculosis Chemotherapeutic Compounds” (Current Medicinal Chemistry, 2025)
In brackets after ≈: the same amount, converted by molar mass. Several values for one entry are separate records, joined by “and”; a condition that tells them apart may be missing. Equal values may be shown once. Entries after “also recorded” stand apart in the source; their conditions may differ. Where a name gives a salt, the structure may show the parent alone. Read-outs that look alike come from different tables or passages of the source.

Assays:
[1] = system: M. tuberculosis H37Rv; test: Bacteriostatic activity, proportion method, BACTEC MGIT 960, Middlebrook 7H9; type: cell-based, Mycobacterium tuberculosis; conditions: for MIC50: 50% inhibition of mycobacterial growth; for effect on growth of M. tuberculosis H37Rv culture, in words: up to the maximum tested concentration
[2] = system: SH-SY5Y neuroblastoma cells; test: Cytotoxicity on tumor cell cultures (resazurin, 48 h); type: cell-based
Procedure: (§1) The total well volume was 150 μl.

[3] = system: K562 leukemia cells; test: as above; type: cell-based; conditions: K562, 48 h
Procedure: as §1

[4] = system: HL60 leukemia cells; test: as above; type: cell-based; conditions: HL60, 48 h
Procedure: as §1

[5] = system: influenza virus A/California/7/2009 (H1N1)pdm09; test: microbe, parasite or virus in culture; type: cell-based, human influenza virus A; conditions: for SI (selectivity index): ratio of CD50 (CC50) to IC50, MDCK; for maximum reduction of the infectious titer: MDCK cell culture
[6] = system: SARS-CoV-2; test: microbe, parasite or virus in culture; type: cell-based; conditions: for IC50: Vero E6
[7] = system: SH-SY5Y, K-562, HL-60, GBM5522 cells; test: Cytotoxicity screening, summary over the cancer cell panel; type: cell-based
Procedure: as §1
Cytotoxicity screening of the synthesized indazole derivatives was performed on the cell line of neuroblastoma SH-SY5Y, lymphoblastic cells K-562, promyeloblastic cells HL-60, low-passage variant of highly differentiated multiform glioblastoma GBM5522 (Table 2).

[8] = system: MDCK cells; test: Cytotoxic effect in MDCK cell culture (MTS); type: cell-based; conditions: MDCK; concentration reducing the cell number by 50%
Procedure: (§2) Multiple dilutions of solutions of all compounds were prepared in 24-well plates by titration into 8 wells, starting from a dilution of 1:10 to 1:1280. The resulting serial dilutions were transferred to the wells of the test plates with cells. Each point was tested in 4 parallel wells. The working medium was added to the wells of the cell control. […] Then, the culture medium was removed from the plates, and 100 μL of the medium and 20 μL of the MTS solution were added to the cell culture monolayer in each well. After incubation for 3 hours at 37°C, the results were recorded on a BIO-RAD automatic reader at a wavelength of 490 nm. Reference filter - 630 nm.
(§3) To obtain statistically reliable results, the experiments were performed 2-3 times. The values of CC50 and IC50 were calculated using generally accepted methods for biological research, as implemented in the Microsoft Excel 5.0 and GraphPad Prism 6.01 software packages. The working model for CC50 analysis was a 4-parameter logistic curve equation (menu items “Nonlinear regression” - “Sigmoidal dose-response (variable slope)”). For IC50 analysis, a 4-parameter logistic curve equation was adopted (menu items “Nonlinear regression” - “log (inhibitor) vs. response (variable slope)”). Based on the obtained data, the selectivity index (SI) was calculated using the equation: SI = CC50/ IC50.

[9] = system: GBM5522 low-passage primary glioblastoma multiforme cells; test: Cytotoxicity on tumor cell cultures (resazurin, 48 h)
Procedure: The low-passage primary glioblastoma multiforme cell culture GBM5522 was previously described [37]. Cells were cultured in DMEM (Servicebio) containing 10% fetal bovine serum (FBS) at 37°C in an atmosphere of 5% CO2. The cells were plated in 96-well plates at a density of 1x10^4 cells/well. The test substances were then added in concentrations ranging from 0.8 to 100 μM. DMSO at a concentration of 1% was used as a control, corresponding to the percentage of DMSO when the highest concentration of the drug was added. The total well volume was 150 μl. The cells were incubated for 48 hours at 37°C in a 5% CO2 atmosphere. Resazurin was added in a concentration of 10 μl of a 0.5 mg/mL solution in phosphate-buffered saline. The incubation was carried out under the same conditions for 4 hours, and then the fluorescence level was measured at an excitation wavelength of 560 nm and an emission wavelength of 590 nm using a CLARIOstar multimodal microplate reader (BMG Labtech, Germany). The data obtained for each concentration were normalized to the control, and the IC50 was calculated using the nonlinear regression method. The minimum number of repetitions for each concentration was three. The GraphPad Prism software v.9.5.1 (GraphPad Software, San Diego, USA) was used to calculate the IC50 and plot the percentage of living cells versus the concentration of the drug.

[10] = system: mycobacteria; parameters: method as in PMID 27704782; conditions: growth of mycobacteria; cited from earlier work
[11] = system: M. tuberculosis; parameters: method as in PMID 37111241; conditions: cited from earlier work
[12] = Cytotoxic effect in MDCK cell culture (MTS); type: cell-based; conditions: dog
Procedure: as §2, §3

[13] = system: white outbred mice; test: in vivo; type: in vivo
Source text: (§4) The toxicity of the compound was studied according to published procedure in compliance with the guidelines.
(§5) In this regard, one representative of the group, lead compound 8, was studied for acute toxicity in […] mice. White outbred mice of both sexes, weighing 25-30 g and aged 12-13 weeks, were used as biomodels. The animals were obtained from the nursery of the Federal State Unitary Enterprise «Research Institute for Hygiene, Toxicology and Occupational Pathology» of the Federal Medical and Biological Agency of Russia. The total number of animals was 20 heads. The experimental and control groups consisted of 4 animals with an equal number of males and females.
(§6) The toxic effect of the specified substance was studied using the described procedure. The substance was administered intragastrically using an atraumatic metal probe at a rate of 0.05 mL per 10 g of body weight in a dose range from 20 mg/kg to 80 mg/kg. Control animals received the solvent (99% DMSO) in the same volume in a similar way.
(§7) After the substance was administered, the animals were continuously observed for 4 hours, then periodically for 14 days, recording clinical manifestations of intoxication and the fact of death, after which lethal doses were calculated.
(§8) Dead animals were autopsied as soon as possible after death, macroscopic manifestations of the effect of the test compound were noted, and internal organs were collected for subsequent histological examination as described earlier.
(§9) Lethal doses were calculated using the probit analysis method, as described by D.J. Finney, in Microsoft Excel 2013 on the 14th day of the experiment.

[14] = in vivo; type: in vivo, mice; conditions: both sexes, white outbred, mouse, in vivo, po; mice, single intragastric administration, day 14
Source text: as §4, §5, §6, §7, §8, §9

[15] = system: continuous leukemia cell lines; parameters: method as in PMID 28587395, PMID 11531262; conditions: read-out: half-maximal effective concentrations; cited from earlier work
[16] = system: mouse; conditions: mouse model studies; cited from earlier work
[17] = system: M. tuberculosis; conditions: cited from earlier work
[18] = 75% inhibition of mycobacterial growth
[19] = Mycobacterium tuberculosis, H37RV, 75% inhibition of mycobacterial growth
[20] = Mycobacterium tuberculosis, H37RV, read-out: MIC 50
[21] = Severe acute respiratory syndrome coronavirus 2, Vero C1008
[22] = mice, single intragastric administration, day 14

Row | Compound | Δlgmax [5] | Δlgmax [6] | MIC50 [1, 20] | IC50 ([2]; Homo sapiens) | IC50 ([3]; Homo sapiens) | IC50 ([4]; Homo sapiens, HL-60) | IC50 ([5]; H1N1, MDCK) | SI (selectivity index) [5] | IC50 [6, 21] | CC50 at 66 h [12] | IC50 ([9]; 48 h) | other results
1 | 6-(cyclopenten-1-en-1-yl)-1H-indazole [Compound 12] | 0.25 | 0.5 | – | – | – | – | – | – | – | – | – | MIC50 [1]: 40 µg/mL; MIC50 ([1]; read-out: MIC 50): 217 µM; MIC [1, 18]: 217 µM; MIC 75 [1, 18]: 40 µg/mL; effect on growth of M. tuberculosis H37Rv culture, in words [1]: best antibacterial activity; IC50 [2]: > 100 µM; IC50 [3]: 22.3 ± 4.3 µM; IC50 [4]: > 100 µM; IC50 ([5]; read-out: IC50): > 2 µM; IC50 [6]: > 3 µM; cytotoxicity in words ([7]; cancer cell lines panel): inactive; CC50 [8]: 4 µM; IC50 ([9]; GBM5522, 48 h): > 100 µM
2 | Cc1n[nH]c(C)c1S(=O)(=O)Nc1ccc2cn[nH]c2c1 [Compound 4, N-(1H-indazol-6-yl)-3,5-dimethyl-1H-pyrazole-4-sulfonamide] | – | – | – | – | – | – | – | – | – | – | – | MIC [10]: 2 µM (≈ 0.583 µg/mL)
3 | O=C(N/N=C/c1ccc2c[nH]nc2c1)c1ccncc1 [Compound 5] | – | – | – | – | – | – | – | – | – | – | – | MIC [11]: 0.11 µM (≈ 0.0292 µg/mL)
4 | c1cc2[nH]ncc2cc1-c1cn[nH]c1 [Compound 7, 5-(1H-pyrazol-4-yl)-1H-indazole] | 0 | 0.25 | 40 µg/mL and 217 µM | 15.5 ± 5.3 µM | 24.4 ± 3.1 µM | 23.7 ± 5 µM | > 20 µM | <5 | > 50 µM | 100 µM | 36.8 ± 2 µM | MIC [1, 19]: 60 µg/mL and 326 µM
5 | c1cc2cn[nH]c2cc1-c1cn[nH]c1 [Compound 8, 6-(1H-pyrazol-4-yl)-1H-indazole] | 2.0 | 0.75 | 40 µg/mL and 217 µM | 4.2 ± 0.9 µM | 6.7 ± 0.8 µM | 9.9 ± 0.8 µM | 6 µM | 55 | > 6 µM | 330 µM | 13.8 ± 1.1 µM | MIC [1, 19]: 60 µg/mL and 326 µM; maximum reduction of the infectious titer [5]: 2.0 logTCID50; Number of Animals in the Group/Number of Dead ([13]; 20 mg/kg intragastric): 4/0; Number of Animals in the Group/Number of Dead ([13]; 40 mg/kg intragastric): 4/2; Number of Animals in the Group/Number of Dead ([13]; 50 mg/kg intragastric): 4/3; necropsy findings ([13]; 80 mg/kg and 50 mg/kg, dead animals): uncoagulated blood was found in the heart, pulmonary hyperemia was present, and blood was observed in the chest; Number of Animals in the Group/Number of Dead ([13]; 80 mg/kg intragastric): 4/4; pathomorphological examination ([13]; 80 mg/kg, male mouse): focal hemorrhages in the gastric mucosa and pronounced swelling and edema of the submucosal layer; clinical picture of intoxication ([13]; lethal doses, first day after administration): convulsions, dysfunction of the hind limbs, increasing hypodynamia; LD10 [13, 22]: 26,2 mg/kg; LD16 [13, 22]: 28,8 mg/kg; LD84 [13, 22]: 55,6 mg/kg; LD50 [14]: 40 mg/kg; cytotoxicity in words [7]: significant cytotoxicity; IC50 ([7]; SH-SY5Y, K-562, HL-60, GBM5522, read-out: IC50 range over cancer cell lines): 4 to 14 µM
6 | c1ncc(-c2ccc3[nH]ncc3c2)cn1 [Compound 9, 5-(pyrimidin-5-yl)-1H-indazole] | 1.0 | 0 | 40 µg/mL and 204 µM | > 100 µM | > 100 µM | > 100 µM | > 100 µM | <10 | > 50 µM | 1050 µM | > 100 µM | MIC [1, 19]: 40 µg/mL and 204 µM; effect on growth of M. tuberculosis H37Rv culture, in words [1]: best antibacterial activity; cytotoxicity in words [7]: inactive
7 | c1cncc(-c2ccc3[nH]ncc3c2)c1 [Compound 10, 5-(pyridin-3-yl)-1H-indazole] | 1.5 | 0.75 | – | 14.3 ± 5 µM | 5.5 ± 1.5 µM | > 100 µM | 25 µM | 24,4 | > 25 µM | 610 µM | 95.4 ± 5.2 µM | effect on growth of M. tuberculosis H37Rv culture, in words [1]: did not affect the growth; also recorded: completely devoid of the ability to suppress the growth of mycobacteria; maximum reduction of the infectious titer [5]: 1.5 logTCID50
8 | c1ncc(-c2ccc3cn[nH]c3c2)cn1 [Compound 11, 6-(pyrimidin-5-yl)-1H-indazole] | 0.5 | 0 | 60 µg/mL and 306 µM | > 100 µM | > 100 µM | > 100 µM | > 200 µM | <5 | > 200 µM | 1120 µM | > 100 µM | cytotoxicity in words [7]: inactive
9 | CCOC(=O)C1=C[C@@H](OC(CC)CC)[C@H](NC(C)=O)[C@@H](N)C1 [Oseltamivir, (3R,4R,5S)-4-acetamido-5-amino-3-(1-ethylpropo-xy)-1-cyclohexene-1-carboxylic acid ethyl ester phosphate salt, reference compound] | 6.0 | – | – | – | – | – | 0.61 µM | – | – | 820 µM | – | –
10 | COc1cc([C@@H]2c3cc4c(cc3[C@@H](O[C@@H]3O[C@@H]5CO[C@@H](C)O[C@H]5[C@H](O)[C@H]3O)[C@H]3COC(=O)[C@H]23)OCO4)cc(OC)c1O [etoposide] | – | – | – | – | – | – | – | – | – | – | – | EC50 [15]: 10 to 100 µM; nonlethal doses [16]: ~ 50 mg/kg
11 | NNC(=O)c1ccncc1 [isoniazid] | – | – | – | – | – | – | – | – | – | – | – | critical concentration ([17]; control drugs): 1 μg/mL and 0.73 µM; MIC [11]: 0.36 µM (≈ 0.0494 µg/mL)
12 | NC(=O)c1cnccn1 [pyrazinamide] | – | – | – | – | – | – | – | – | – | – | – | critical concentration [17]: 100 μg/mL and 812 µM
13 | CO[C@H]1/C=C/O[C@@]2(C)Oc3c(C)c(O)c4c(O)c(c(/C=N/N5CCN(C)CC5)c(O)c4c3C2=O)NC(=O)/C(C)=C\C=C\[C@H](C)[C@H](O)[C@@H](C)[C@@H](O)[C@@H](C)[C@H](OC(C)=O)[C@@H]1C [rifampicin] | – | – | – | – | – | – | – | – | – | – | – | critical concentration ([17]; control drugs): 0.5 μg/mL and 0.61 µM
